Test results taken from patent publication US5459150A, “Indole derivatives which inhibit leukotriene biosynthesis” (Abbott Laboratories, priority 1993, dated 1995).
Where a name gives a salt, the structure may show the parent alone.

How the values were obtained:
[1] = test system: LTB4 biosynthesis in human whole blood; assay: Inhibition of LTB4 biosynthesis in human whole blood (calcium ionophore A23187-induced); format: cell-based; conditions: human heparinized whole blood, A23187, 30 min at 37° C.
Protocol: (§1) Inhibition of leukotriene biosynthesis by representative compounds of the present invention was evaluated in assays involving calcium ionophore-induced LTB4 biosynthesis expressed by human polymorphonuclear leukocytes (PMNL) or human whole blood. Human PMNL were isolated from heparinized (20 USP units/mL) venous blood using Ficoll-Hypaque Mono-Poly Resolving Medium. Human PMNL suspensions (5×10^6 cells/250 μL) were preincubated with test compounds or vehicle for 15 min at 37° C. followed by calcium ionophore A23187 challenge (final concentration of 8.3 μM) and the reaction terminated after 10 rain by adding two volumes of methanol containing prostaglandin B2 as an internal recovery standard. The methanol extracts were analyzed for LTB4 content by HPLC or radioimmunoassay.
The assay using human heparinized whole blood was incubated for 30 minutes at 37° C. after adding […] of ionophore A23187. The plasma layer was obtained by centrifugation and deproteinized by the addition of four volumes of methanol. The methanol extract was analyzed for LTB4 by HPLC or radioimmunoassay.

[2] = test system: LTB4 biosynthesis in human polymorphonuclear leukocytes (PMNL); assay: Inhibition of LTB4 biosynthesis in human PMNL (calcium ionophore A23187-induced); format: cell-based; conditions: for IC50: A23187 8.3 μM, 15 min preincubation; for Human PMNL, inhibition of LTB4 biosynthesis, % @ 1.6: @ 1.6 (μM)
Protocol: as §1

leukotriene biosynthesis = assay: Inhibition of leukotriene biosynthesis in vivo, rat peritoneal anaphylaxis model; conditions: one hour prior to antigen challenge
Protocol: Inhibition of the biosynthesis of leukotrienes in vivo after oral administration of compound was determined using a rat peritoneal anaphylaxis model in a similar manner as that described by Young and coworkers (Young, P. R.; Dyer, R. D.; Carter, G. W. Fed. Proc., Fed. Am. Soc. Exp. Biol. 1985, 44, 1185). In this model rats were injected intraperitoneally (ip) with rabbit antibody to bovine serum albumin (BSA) and three hours later injected ip with BSA to induce an antigen-antibody response. Rats were sacrificed 15 minutes after this challenge and the peritoneal fluids were collected and analyzed for leukotriene levels. Test compounds were administered by garage one hour prior to the antigen challenge. Percent inhibition values were determined by comparing the treatment group to the mean of the control group. Compounds of this invention are orally effective in preventing the in vivo bio-synthesis of leukotrienes as illustrated for representative examples shown in Table 2.

IC50 ([1]; Homo sapiens, 0.5 h) [nM]	IC50 [2] [nM]	SMILES	further results
2500		CC(C)c1ccc2c(c1)c(SC(C)(C)C)c([C@@H]1C[C@H]1CN(O)C(N)=O)n2Cc1ccc(Cl)cc1 (relative stereo) [Example 14, N-hydroxy-N-[trans-2-(1-(4-chlorophenylmethyl)-3-(1,1-dimethylethylthio)-5-(1-methylethyl)indol-2-yl)cyclopropyl]methylurea]	Human PMNL, inhibition of LTB4 biosynthesis, % @ 0.78 ([2]; @ 0.78 (μM)): 40%
2700	400	CC(C)c1ccc2c(c1)c(SC(C)(C)C)c([C@@H]1C[C@H]1CNC(N)=O)n2Cc1ccc(Cl)cc1 (relative stereo) [Example 23, N-[trans-2-(1-(4-chlorophenylmethyl)-3-(1,1-dimethylethylthio)-5-(1-methylethyl)indol-2-yl)cyclopropyl]methyl urea]	
1300	150	CC(C)c1ccc2c(c1)c(SC(C)(C)C)c(CC(C)(C)NC(=O)N(C)O)n2Cc1ccc(Cl)cc1 [Example 1]	
2200	270	CC(C)c1ccc2c(c1)c(SC(C)(C)C)c(CC(C)(C)C=NO)n2Cc1ccc(Cl)cc1 [Example 2, 2,2-dimethyl-3-[1-(4-chlorophenylmethyl)-3-(1,1-dimethylethylthio)-5-(1-methylethyl)indol-2-yl]propionaldehyde oxime]	Percent Leukotriene inhibition at 100 μmol/kg oral dose (leukotriene biosynthesis): 46%
1600	170	CC(C)c1ccc2c(c1)c(SC(C)(C)C)c(CC(C)(C)CN(O)C(N)=O)n2Cc1ccc(Cl)cc1 [Example 3, N-hydroxy-N-2,2-dimethyl-3-[(1-(4-chlorophenylmethyl)-3-(1,1-dimethylethylthio)-5-(1-methylethyl))indol-2-yl]propyl urea]	Percent Leukotriene inhibition at 100 μmol/kg oral dose (leukotriene biosynthesis): 68%
6700	570	CC(C)c1ccc2c(c1)c(SC(C)(C)C)c(CCNC(=O)N(C)O)n2Cc1ccc(Cl)cc1 [Example 4, N'-hydroxy-N'methyl-N-2-[(1-(4-chlorophenylmethyl)-3-(1,1-dimethylethylthio)-5-(1-methylethyl))indol-2-yl]ethyl urea]	
710	180	CC(C)c1ccc2c(c1)c(SC(C)(C)C)c(CC(C)(C)CNC(N)=O)n2Cc1ccc(Cl)cc1 [Example 5, N-2,2-dimethyl-3-[(1-(4-chlorophenylmethyl)-3-(1,1-dimethylethyl-thio)-5-(1-methylethyl))indol-2-yl]propyl urea]	Percent Leukotriene inhibition at 100 μmol/kg oral dose (leukotriene biosynthesis): 86%
1200	150	CC(C)c1ccc2c(c1)c(SC(C)(C)C)c(CC(C)(C)C(=O)NCCNC(=O)N(C)O)n2Cc1ccc(Cl)cc1 [Example 6, N'-hydroxy-N'-methyl-N-2-[3-(1-(4-chlorophenylmethyl)-3-(1,1-dimethylethylthio)-5-(1-methylethyl)indol-2-yl)-2,2-dimethylpropionylamino]ethyl urea]	Percent Leukotriene inhibition at 100 μmol/kg oral dose (leukotriene biosynthesis): 86%
1400	310	CC(C)c1ccc2c(c1)c(SC(C)(C)C)c(CC(C)(C)C(=O)NCCC(=O)O)n2Cc1ccc(Cl)cc1 [Example 6.2]	
6900	4200	CC(C)c1ccc2c(c1)c(SC(C)(C)C)c(CC(C)(C)CNCCCO)n2Cc1ccc(Cl)cc1 [Example 7, 1-(4-chlorophenylmethyl)-2-[2,2-dimethyl-3-((3-hydroxypropyl)amino)propyl]-3-(1,1-dimethylethylthio)-5-(1-methylethyl)indole]	
5200	400	CC(C)c1ccc2c(c1)c(SC(C)(C)C)c(CC(C)(C)NC(N)=O)n2Cc1ccc(Cl)cc1 [Example 8, N-2-[2-methyl-3-(1-(4-chlorophenylmethyl)-3-(1,1-dimethylethylthio)-5-(1-methylethyl)indol-2-yl)]propyl urea]	
5600		CCOC(=O)CCNC(=O)NC(C)(C)Cc1c(SC(C)(C)C)c2cc(C(C)C)ccc2n1Cc1ccc(Cl)cc1 [Example 9]	Human PMNL, inhibition of LTB4 biosynthesis, % @ 1.6 [2]: 77%
2500		CC(C)c1ccc2c(c1)c(SC(C)(C)C)c(CC(C)(C)NC(=O)NCCC(=O)O)n2Cc1ccc(Cl)cc1 [Example 10]	Human PMNL, inhibition of LTB4 biosynthesis, % @ 1.6 [2]: 70%
1300		CC(C)c1ccc2c(c1)c(SC(C)(C)C)c(CC(C)(C)C=NNC(=N)N)n2Cc1ccc(Cl)cc1 [Example 12, 1-(4-chlorophenylmethyl)-3-(1,1-dimethylethylthio)-2-[3-(2,2-dimethyl-1-guanidinylimino)propyl]-(1-methylethyl)indole]	Human PMNL, inhibition of LTB4 biosynthesis, % @ 3.1 ([2]; @ 3.1 (μM)): 100%
		CC(C)c1ccc2c(c1)c(SC(C)(C)C)c(CC(C)(C)NC(=O)NCCC(=O)O)n2Cc1ccc(Cl)cc1 [Example 13, 3-[3-(1-(4-chlorophenylmethyl)-3-(1,1dimethylethylthio)-5-(1-methylethyl)indol-2-yl)-2-aminocarbonylamino-2-methylpropyl]propanoic acid, sodium salt]	IC50 ([1]; sodium salt): 3000 nM
900	90	CC(C)c1ccc2c(c1)c(SC(C)(C)C)c(CC(C)(C)C(=O)O)n2Cc1ccncc1 [Example 15, 3-[3-(1,1-dimethylethylthio)-5-(1-methylethyl)-1-(4-pyridinylmethyl)indol-2-yl]-2,2-dimethylpropanoic acid]	
5500		CC(C)c1ccc2c(c1)c(SC(C)(C)C)c(CC(C)(C)C(=O)O)n2Cc1cccs1 [Example 16]	
680		CC(C)c1ccc2c(c1)c(SC(C)(C)C)c(CC(C)(C)C=NOCC(=O)O)n2Cc1ccc(Cl)cc1 [Example 20]	Percent Leukotriene inhibition at 100 μmol/kg oral dose (leukotriene biosynthesis): 99%
1100		CC(C)c1ccc2c(c1)c(SC(C)(C)C)c(CC(C)(C)CN)n2Cc1ccc(Cl)cc1 [Example 21]	
2100		CC(=O)NCC(C)(C)Cc1c(SC(C)(C)C)c2cc(C(C)C)ccc2n1Cc1ccc(Cl)cc1 [Example 22]	

SMILES	IC50 ([1]; Homo sapiens, 0.5 h) [nM]	IC50 [2] [nM]	further results
CCOC(=O)C(C)(C)Cc1c(C(=O)CCNC(=O)N(C)O)c2cc(C(C)C)ccc2n1Cc1ccc(Cl)cc1 [Example 11, N'-hydroxy-N'-methyl-N-'[1-(4-chlorophenylmethyl)-5-(1-methylethyl)-2-((2-methyl-2-ethoxycarbonyl)propyl)indol-2-yl]-3-oxopropylurea]		1500	IC50 ([1]; 0.5 h): 6900 nM
